Source: PubChem BioAssay AID330 (DTP/NCI, 2004)
Several values for one entry are separate records, joined by “and”; a condition that tells them apart may be missing. Equal entries are not always repeated. Inconclusive results and toxic doses are left out.

Test system: P388 leukemia ip, CD2F1 mice, survival T/C
Assay: NCI In Vivo Anticancer Drug Screen. Data for tumor model P388 Leukemia (intraperitoneal) in CD2F1 (CDF1) mice
Conditions: endpoint: median survival time, higher = longer survival
Method in brief: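 Mice carrying the transplanted tumor received test compound or vehicle. Survival was recorded in each group, and the value is the treated-group measurement divided by that of the vehicle-treated control group.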

[1] = dose: 60.0 mg/kg/injection, schedule: Q01DX005 (ip), vehicle: Klucel (hydroxypropylcellulose) (HPC)
[2] = dose: 120.0 mg/kg/injection, schedule: Q01DX005 (ip), vehicle: Klucel (hydroxypropylcellulose) (HPC)
[3] = dose: 50.0 mg/kg/injection, schedule: Q01DX005 (ip), vehicle: Klucel (hydroxypropylcellulose) (HPC)
[4] = dose: 100.0 mg/kg/injection, schedule: Q01DX005 (ip), vehicle: Klucel (hydroxypropylcellulose) (HPC)
[5] = dose: 200.0 mg/kg/injection, schedule: Q01DX005 (ip), vehicle: Klucel (hydroxypropylcellulose) (HPC)
[6] = dose: 50.0 mg/kg/injection, schedule: Q01DX009 (ip), vehicle: saline with Tween-80
[7] = dose: 50.0 mg/kg/injection, schedule: Q01DX009 (ip), vehicle: saline
[8] = dose: 6.25 mg/kg/injection, schedule: Q01DX005 (ip), vehicle: Klucel (hydroxypropylcellulose) (HPC)
[9] = dose: 12.5 mg/kg/injection, schedule: Q01DX005 (ip), vehicle: Klucel (hydroxypropylcellulose) (HPC)
[10] = dose: 25.0 mg/kg/injection, schedule: Q01DX005 (ip), vehicle: Klucel (hydroxypropylcellulose) (HPC)

COc1ccc(C(c2cc3c(cc2O)OCO3)N2CCN(C(c3cc4c(cc3O)OCO4)c3ccc(OC)cc3OC)CC2)c(OC)c1 (configuration not stated)
T/C [1]: 88 % of control | T/C [2]: 86 % of control

N#CC(=Nc1ccc2ccccc2c1)C1=C(O)c2ccccc2C1=O
T/C [3]: 101 % of control | T/C [4]: 101 % of control | T/C [5]: 110 % of control

COC(=O)/C(C#N)=C/c1ccc(NC(C)=O)cc1
T/C [3]: 93 % of control | T/C [4]: 94 % of control | T/C [5]: 88 % of control

Cc1nnc(NC(=O)c2cc(=O)c3cc(Cl)ccc3o2)s1
T/C [3]: 100 % of control | T/C [4]: 106 % of control | T/C [5]: 100 % of control

Cc1ccc(Cl)cc1S(=O)(=O)Cl
T/C (dose: 12.5 mg/kg/injection, schedule: Q01DX009 (ip), vehicle: distilled water + Tween-80): 100 % of control | T/C (dose: 25.0 mg/kg/injection, schedule: Q01DX009 (ip), vehicle: distilled water + Tween-80): 110 % of control

c1ccc2cc3c4c(ccc3cc2c1)CCCCCC4
T/C (dose: 12.5 mg/kg/injection, schedule: Q01DX009 (ip), vehicle: saline with Tween-80): 86 % of control | T/C (dose: 25.0 mg/kg/injection, schedule: Q01DX009 (ip), vehicle: saline with Tween-80): 112 % of control | T/C [6]: 105 % of control

O=C(O)c1ccccc1C(=O)c1ccccn1
T/C (dose: 50.0 mg/kg/injection, schedule: Q01DX009 (ip), vehicle: Klucel (hydroxypropylcellulose) (HPC)): 99 % of control | T/C (dose: 100.0 mg/kg/injection, schedule: Q01DX009 (ip), vehicle: Klucel (hydroxypropylcellulose) (HPC)): 97 % of control | T/C (dose: 200.0 mg/kg/injection, schedule: Q01DX009 (ip), vehicle: Klucel (hydroxypropylcellulose) (HPC)): 97 % of control

Sc1nc2ccccc2s1.Sc1nc2ccccc2s1.Sc1nc2ccccc2s1.Sc1nc2ccccc2s1.[Cl][Rh][Cl]
T/C [6]: 93 % of control | T/C (dose: 100.0 mg/kg/injection, schedule: Q01DX009 (ip), vehicle: saline with Tween-80): 101 % of control | T/C (dose: 200.0 mg/kg/injection, schedule: Q01DX009 (ip), vehicle: saline with Tween-80): 101 % of control

CCCNN1CCN(c2ccncc2S(=O)(=O)N2CCCCC2)CC1
T/C [1]: 98 % of control | T/C [2]: 99 % of control | T/C (dose: 240.0 mg/kg/injection, schedule: Q01DX005 (ip), vehicle: Klucel (hydroxypropylcellulose) (HPC)): 94 % of control

CN1CCC2=C(C1)C(c1ccccc1)c1ccccc12 (configuration not stated)
T/C (dose: 33.0 mg/kg/injection, schedule: Q01DX009 (ip), vehicle: saline): 107 % of control | T/C [7]: 104 % of control | T/C (dose: 75.0 mg/kg/injection, schedule: Q01DX009 (ip), vehicle: saline): 107 % of control

CP(C)(=S)[S][Sn]([CH3])([CH3])[S]P(C)(C)=S
T/C [8]: 109 % of control and 113 % of control | T/C [9]: 108 % of control and 115 % of control and 117 % of control | T/C [10]: 105 % of control and 106 % of control and 122 % of control

Nc1ccc2nc[nH]c(=O)c2c1
T/C (dose: 3.0 mg/kg/injection, schedule: Q01DX005 (ip), vehicle: Klucel (hydroxypropylcellulose) (HPC)): 96 % of control | T/C [8]: 95 % of control | T/C (dose: 12.0 mg/kg/injection, schedule: Q01DX005 (ip), vehicle: Klucel (hydroxypropylcellulose) (HPC)): 101 % of control | T/C [9]: 100 % of control | T/C [10]: 111 % of control

C=CCNC(=S)NNC(=O)CNC(c1ccc(OC)cc1)C(CC)c1ccc(OC)cc1 (configuration not stated)
T/C (dose: 100.0 mg/kg/injection, schedule: Q01DX001 (ip), vehicle: saline with Tween-80): 99 % of control | T/C (dose: 200.0 mg/kg/injection, schedule: Q01DX001 (ip), vehicle: saline with Tween-80): 110 % of control

CCCCCCCCCC#CC(=O)OC
T/C [7]: 105 % of control | T/C (dose: 100.0 mg/kg/injection, schedule: Q01DX009 (ip), vehicle: saline): 105 % of control | T/C (dose: 200.0 mg/kg/injection, schedule: Q01DX009 (ip), vehicle: saline): 105 % of control

OCCN(CO)CCO
T/C (dose: 60.0 mg/kg/injection, schedule: Q01DX005 (ip), vehicle: saline with Tween-80): 117 % of control | T/C (dose: 120.0 mg/kg/injection, schedule: Q01DX005 (ip), vehicle: saline with Tween-80): 123 % of control | T/C (dose: 240.0 mg/kg/injection, schedule: Q01DX005 (ip), vehicle: saline with Tween-80): 115 % of control

C=C(C)C1=CC(=O)C2CCCC(C)C2(C)C1OC(C)=O (configuration not stated)
T/C (dose: 75.0 mg/kg/injection, schedule: Q01DX001 (ip), vehicle: Klucel (hydroxypropylcellulose) (HPC)): 100 % of control | T/C (dose: 150.0 mg/kg/injection, schedule: Q01DX001 (ip), vehicle: Klucel (hydroxypropylcellulose) (HPC)): 106 % of control | T/C (dose: 300.0 mg/kg/injection, schedule: Q01DX001 (ip), vehicle: Klucel (hydroxypropylcellulose) (HPC)): 107 % of control
